Where “and” joins values, the source holds several entries; their conditions need not be identical. Equal values may be shown once.
How the values were obtained:
[1] = tested on: DBA1/J mice with collagen-induced arthritis; experiment: Collagen induced arthritis (CIA); type: in vivo, mouse
Text: CIA was induced in 8-week-old male DBA1/J mice (Jackson Laboratories) using a standard protocol (Courtenay et al., “Immunisation Against Heterologous Type II Collagen Induces Arthritis in Mice,” Nature 283 (5748):666-668 (1980); Nagler-Anderson et al., “Suppression of Type II Collagen-Induced Arthritis by Intragastric Administration of Soluble Type II Collagen,” Proc. Natl. Acad. Sci. U.S.A. 83 (19):7443-7446 (1986), which are hereby incorporated by reference in their entirety). Briefly, bovine type II collagen (Chondrex, Redmond, Wash.) was dissolved overnight in acetic acid 0.1 N and then homogenized at 1:1 with Complete Freund's Adjuvant (CFA, Difco, Detroit, Mich.). Anesthetized mice were injected intradermally with 100 μg of type II collagen emulsified in CFA in the tail. The new Trpv2 agonist LER13 (10 mg/Kg) or control vehicle (PBS 50%, PEG300 40%, PG 5%, PS80 5%) was started on day 10 (D10) and administered intra-peritoneally every-other-day (from D10 until day 55). On day 21 (D21), mice received a booster injection of 100 μg of type II collagen in incomplete Freund's adjuvant. Clinical signs of arthritis were evident on day 24 (D24).
Arthritis severity in CIA mice was scored using a modified scoring system based on Jirholt et al., “Genetic Linkage Analysis of Collagen-Induced Arthritis in the Mouse,” Eur. J. Immunol. 28 (10):3321-3328 (1998), which is hereby incorporated by reference in its entirety. Briefly, the modified scoring system ranged from 0-16 per mouse per day and included a functional component of disease severity (non-weight bearing) in the maximum score of 4 per paw. The arthritis severity index (ASI), which is the sum of all scores obtained during the observation period, was used to compare treatment groups as it provides a comprehensive assessment of arthritis severity over time, and correlates with histologic damage (Brenner et al., “The Non-MHC Quantitative Trait Locus Cia10 Contains a Major Arthritis Gene and Regulates Disease Severity, Pannus Formation and Joint Damage,” Arthritis Rheum. 52 (1):322-332 (2005); Brenner et al., “The Non-MHC Quantitative Trait Locus Cia5 Contains Three Major Arthritis Genes that Differentially Regulate Disease Severity, Pannus Formation, and Joint Damage in Collagen- and Pristane-Induced Arthritis,” J. Immunol. 174 (12):7894-7903 (2005), which are hereby incorporated by reference in their entirety).

phosphorylated Akt = experiment: FLS levels of phosphorylated Akt; type: cell-based
MMP-3 = experiment: IL-1β-induced MMP-3 expression (qPCR) in RA FLS; type: cell-based, human; details: IL-1β 10 ng/ml 48 hours, 10 μM, n=6 RA
Description: The qPCR conditions used have been previously described (Laragione et al., “Cia5d Regulates a New Fibroblast-Like Synoviocyte Invasion-Associated Gene Expression Signature,” Arthritis Res. Ther. 10 (4):R92 (2008), which is hereby incorporated by reference in its entirety). Briefly, total RNA (200 ng) from each sample was reverse transcribed using Superscript III (Invitrogen). MMP-2 (forward-[…] (SEQ ID NO: 1); reverse-GGTATCCATCGCCATGCT (SEQ ID NO: 2) and MMP-3 (forward-CCAGGTGTGGAGTTCCTGA (SEQ ID NO: 3); reverse-[…] (SEQ ID NO: 4)) primers were designed based on the Universal ProbeLibrary (Roche, Indianapolis, Ind.). Reactions were prepared with Absolute Blue qPCR Mix (Thermo Fisher, Waltham, Mass.), and run in duplicate on a LightCycler 480 thermocycler (Roche) using Relative Quantitative Software (Roche). Ct (threshold cycle) values were adjusted for GAPDH in each sample (ΔCt). Fold differences were calculated with the 2^−ΔΔCt method (Livak et al., “Analysis of Relative Gene Expression Data Using Real-Time Quantitative PCR and the 2(-Delta Delta C(T)) Method,” Methods 25 (4):402-408 (2001), which is hereby incorporated by reference in its entirety).

[2] = tested on: C57BL/6 mice with KRN serum transfer-induced arthritis; experiment: KRN serum transfer induced arthritis (clinical scores and histology); type: in vivo, mouse
Description: Seven to eight week-old C57BL/6 male mice (Jackson Laboratories) received 200 μl of KRN arthritogenic serum (Ji et al, “Genetic Influences on the End-Stage Effector Phase of Arthritis,” J. Exp. Med. 194 (3):321-330 (2001), which is hereby incorporated by reference in its entirety) (KBN TCR transgenic mice were a kind gift from Christophe Benoist and have been intercrossed with NOD at the Feinstein Institute to generate KRN mice and the arthritogenic serum) intraperitoneal (IP) on day zero (D0) and day 2 (D2). After the onset of clear ankle arthritis (day 3; D3), mice were started on O1821 10 mg/Kg IP BID or control vehicle (DMSO in saline solution). Arthritis severity was scored according to the system reported by Jirholt et al., “Genetic Linkage Analysis of Collagen-Induced Arthritis in the Mouse,” Eur. J. Immunol. 28 (10):3321-3328 (1998), which is hereby incorporated by reference in its entirety, which includes a number of involved joints and a degree of inflammation (swelling/redness) in a scale of 0-12 per mouse per day.
[…] Histology slides were scored without knowledge of treatment and according to a comprehensive scoring system previously reported that includes parameters for synovial hyperplasia, inflammatory cell infiltration, and bone and cartilage erosions (Brenner et al., “The Non-MHC Quantitative Trait Locus Cia10 Contains a Major Arthritis Gene and Regulates Disease Severity, Pannus Formation and Joint Damage,” Arthritis Rheum. 52 (1):322-332 (2005), which is hereby incorporated by reference in its entirety).

glioblastoma cell line = experiment: Cancer cell invasion, glioblastoma; type: cell-based
[3] = 10 mg/Kg IP every-other-day from D10, scoring to D76

Question: Which results are given for `C#Cc1cc(O)c(C2C=C(C)CCC2C(=C)C)c(O)c1C1C=C(C)CCC1C(=C)C` [Compound 13, (1R,2″R,2R,2″S)-6′-ethynyl-5,5″-dimethyl-2,2″-di(prop-1-en-2-yl)-1,1″,2,2″,3,3″,4,4″-octahydro-[1,1′:3′,1″-terphenyl]-2′,4′-diol]?
Answer: Maximum arthritis severity score per mouse, mean±SD ([1]; 10 mg/Kg IP every-other-day): 7±4.2; Reduction of maximum arthritis severity scores per mouse vs vehicle ([1]; 10 mg/Kg IP every-other-day): ~50% and 50%; Arthritis severity index (ASI), mean±S.D. [1, 3]: 40.7±36.8; Reduction in mean cumulative arthritis scores vs vehicle [1, 3]: 50%; Arthritis severity (CIA) ([1]; collagen-induced arthritis): Protective in CIA; Number of joints with the maximum score ([1]; day 63): 5; Number of joints with the maximum score ([1]; day 70): 1

Question: For `C=C(C)[C@@H]1CCC(C)=C[C@H]1c1c(O)cc(C)cc1O` [Compound O1821], which “Levels of phosphorylated Akt” value (phosphorylated Akt) is on record?
Answer: did not affect

Question: And the “Decrease of IL-1β-induced MMP-3 expression” value (MMP-3)?
Answer: 92% and 90%

Question: What about the Arthritis severity scores ([2]; 10 mg/Kg BID IP from day 3 to day 9) of the same molecule?
Answer: reductions in arthritis severity scores

Question: What about the “Arthritis severity index (ASI), mean±S.D.” value ([2]; 10 mg/Kg IP BID from day 3) of the same molecule?
Answer: 38.8±6.3

Question: And the “Lower arthritis severity index (ASI) vs vehicle” value ([2]; 10 mg/Kg IP BID from day 3)?
Answer: 30%

Question: What about the “Histologic parameters (angiogenesis, inflammatory infiltration, pannus formation, loss of proteoglycan)” value ([2]; ankles at D10, blinded scoring) of the same molecule?
Answer: reduced several histologic parameters

Question: And the Angiogenesis ([2]; histology, vs control vehicle)?
Answer: marked reduction

Question: What about the Synovial pannus formation ([2]; histology, vs control vehicle) of the same molecule?
Answer: reduced

Question: What about the “Synovial tissue inflammatory infiltration” value ([2]; histology, vs control vehicle) of the same molecule?
Answer: reduced

Question: What about the Cell invasion (glioblastoma cell line) of the same molecule?
Answer: significantly reduce cell invasion
